Results from PMC8570331, “8-Hydroxyquinoline-Amino Acid Hybrids and Their Half-Sandwich Rh and Ru Complexes: Synthesis, Anticancer Activities, Solution Chemistry and Interaction with Biomolecules” (International Journal of Molecular Sciences, 2021).
Read-outs that look alike come from different tables or passages of the source.

Legend:
Colo-205 cells = test: Annexin V-FITC / propidium iodide apoptosis induction assay, flow cytometry; assay type: cell-based, human; conditions: 3 h induction
From the text: 12H-Benzo[α]phenothiazine (M627) and cisplatin were used as positive controls. Annexin-V assay offers the possibility of detecting early phases of apoptosis. Apoptosis is a morphologically and biochemically distinct form of programmed cell death, which is the preferred mode of action for an anticancer compound. PI was used to distinguish between viable, early apoptotic and necrotic or late apoptotic cells. […] In order to better understand the different behavior of the studied compounds, an in-depth analysis of the various solution (physico-)chemical properties of the ligands and complexes were performed.
The assay was carried out using an Annexin V-FITC Apoptosis Detection Kit from Sigma-Aldrich according to the manufacturer’s instructions. The concentration of the Colo-205 cell suspension was adjusted to approximately 0.5 × 10^6 cells per mL in RPMI 1640 medium, and the cell suspension was distributed in 1 mL aliquots into a 24-well plate and then incubated overnight at 37 °C and 5% CO2. The next day, the medium was removed and replaced by 1 mL RPMI 1640 medium containing the compounds except for the control samples. […] After the incubation period, the samples were washed with PBS, and a fresh medium was added to the samples. The cells were incubated overnight at 37 °C and 5% CO2. The next day, 200 μL 0.25% Trypsin (Trypsin-Versen) was added to the samples until cells appeared detached, followed by the addition of 400 μL of medium supplemented with 10% bovine serum. The cells were collected in Eppendorf tubes and centrifuged at 2000× g for 2 min. The harvested cells were re-suspended in a fresh serum-free RPMI 1640 culture medium. After this step, the apoptosis assay was carried out according to the protocol of the kit. The fluorescence was analyzed immediately using a ParTec CyFlow flow cytometer (Partec GmbH, Münster, Germany).

[1] = parameters: method as in PMID 32500882; conditions: cited from earlier work
Ac-Phe–His–Ala-NH2 (FHA) = tested on: Ac-Phe–His–Ala-NH2 (FHA); parameters: method as in PMID 34374386; conditions: cited from earlier work
Ac-Ala–His–Ala-NH2 (AHA) = tested on: Ac-Ala–His–Ala-NH2 (AHA); parameters: method as in PMID 34374386; conditions: cited from earlier work
[2] = biological target: T1, HSA site I (subdomain IIA) (Homo sapiens, UniProt P02768); parameters: method as in PMID 34374386; conditions: cited from earlier work
T1 construct: purchased Sigma-Aldrich A8763

[3] = biological target: T2, HSA site II (subdomain IIIA) (Homo sapiens, UniProt P02768); parameters: method as in PMID 34374386; conditions: cited from earlier work
T2 construct: purchased Sigma-Aldrich A8763

[4] = tested on: MRC-5 human lung fibroblast cell line; test: MTT cytotoxicity assay in MRC-5; assay type: cell-based; conditions: Homo sapiens, MRC5, 72 h incubation
Experimental: (§1) The in vitro cytotoxic activity of the novel water-soluble amino acid derivatives of HQCl and their RhCp* and RuCym complexes was measured by the thiazolyl blue tetrazolium bromide (MTT) assay in two human colon adenocarcinoma cell lines (Colo-205 and Colo-320) and in one non-tumoral human lung fibroblast cell line (MRC-5). The results are given in terms of IC50 values (Table 1). Colo-205 is a drug-sensitive cell line with a normal ABCB1 transporter expression pattern, while Colo-320 is multidrug-resistant and overexpresses the ABCB1 system.
(§2) All cell culture reagents were obtained from Sigma-Aldrich and plasticware from Sarstedt (Nümbrecht, Germany). Human colonic Colo-205 doxorubicin-sensitive and Colo-320/MDR-LRP multidrug-resistant adenocarcinoma and MRC-5 human embryonal lung fibroblast cell lines were purchased from LGC Promochem, Teddington, UK. The colonic adenocarcinoma cells were cultured in Roswell Park Memorial Institute (RPMI) 1640 medium supplemented with 10% heat-inactivated fetal bovine serum, 2 mM L-glutamine, 1 mM sodium pyruvate and […]. The MRC-5 cell line was cultured in Eagle’s Minimal Essential Medium (EMEM, Sigma-Aldrich, St. Louis, MO, USA) supplemented with a non-essential amino acid (NEAA) mixture (Sigma-Aldrich, St. Louis, MO, USA) a selection of vitamins, 10% heat-inactivated foetal bovine serum (FBS), 2 mM L-glutamine (Sigma-Aldrich, St. Louis, MO, USA), 1 mM Na-pyruvate (Sigma-Aldrich, St. Louis, MO, USA), nystatin (Sigma-Aldrich, St. Louis, MO, USA) and a penicillin-streptomycin mixture (Sigma-Aldrich, St. Louis, MO, USA) in con-centrations of 100 U/L and 10 mg/L, respectively. The cells were incubated at 37 °C, in a 5% CO2, 95% air atmosphere. All cell lines were detached with Trypsin-Versene (EDTA) solution for 5 min at 37 °C.
(§3) The tested compounds were dissolved in 10% (v/v) DMSO/H2O using 4 mM concentration. Doxorubicin (Merck, Darmstadt, Germany) was used as a positive control. Then stock solutions were diluted in complete culture medium, and two-fold serial dilutions of compounds were prepared in 100 μL of the medium, horizontally. The semi-adherent colonic adenocarcinoma cells were treated with Trypsin-Versene (EDTA) solution. They were adjusted to a density of 1 × 10^4 cells in 100 μL of RPMI 1640 or EMEM medium and were added to each well, with the exception of the medium control wells. The final volume of the wells containing compounds and cells was 200 μL. The plates containing Colo-205, Colo-320 or MRC-5 cells were incubated at 37 °C for 72 h; at the end of the incubation period, 20 μL of MTT solution (from a stock solution of 5 mg/mL) were added to each well. After incubation at 37 °C for 4 h, 100 μL of SDS solution (10% in 0.01 M HCI) were added to each well, and the plates were further incubated at 37 °C overnight. […] The IC50 values were obtained from at least 3 independent experiments.

[5] = Proton dissociation constants of the ligands (pH-potentiometry, UV-vis, 1H NMR titrations); assay type: physicochemical; conditions: for pKa: aqueous solution, I = 0.2 M KNO3, T = 25.0 °C
Experimental: pH-potentiometric measurements were carried out at 25.0 ± 0.1 °C in water in the pH range between 2.0 and 11.5 and at a constant ionic strength of 0.2 M KNO3. The titrations were performed in a carbonate-free KOH solution (0.20 M). The exact concentrations of HNO3 and KOH solutions were determined by pH-potentiometric titrations. An Orion 710A pH-meter equipped with a Metrohm combined electrode (type 6.0234.100) and a Metrohm 665 Dosimat burette were used for the pH-potentiometric measurements. […] The average water ionization constant, pKw, was determined as 13.76 ± 0.01, which is in good agreement with the literature data. The initial volume of the samples was 5.0 mL. The ligand concentration was 1.75 or 2.0 mM. Samples were degassed by bubbling purified argon through them for about 10 min prior to the measurements, and the inert gas was also passed over the solutions during the titrations. The computer program Hyperquad2013 [46] was utilized to establish the stoichiometry of the species and to calculate the equilibrium constants, similarly to that performed in our previous works.
Agilent Cary 8454 diode array spectrophotometer was utilized to obtain UV-vis spectra in the wavelength range 190–1100 nm. The path length (ℓ) was 1 cm in most cases (the actual ℓ is always indicated in the legends of the figures). The concentrations of the ligands and complexes were between 88 and 240 µM. For HSA and ct-DNA containing samples, complex concentrations were 100 µM, and 0.5 and 2 equiv. biomolecule were added for kinetic studies, respectively. Individual samples contained 0–20 µM HSA and 0–1.75 mM (nucleotide) ct-DNA. Spectra were always background corrected. The computer program HypSpec was used to obtain stability constants.
Bruker Avance III HD Ascend 500 Plus instrument (Billerica, MA, USA) was used for NMR studies. ^1H NMR spectroscopic measurements were carried out with a WATERGATE water suppression pulse scheme in the presence of 10% (v/v) D2O in most cases. DSS internal standard was added to samples to obtain reference peaks. Complex concentrations were 0.5 mM or 1.0 mM, and 0.5 equiv. HSA was added. ^1H NMR titrations were carried out in the presence of 0.2 M KNO3. With the FHA model peptide, the measurements were performed at 0.5 or 1 mM metal complex concentrations, and 1:1, 1:2 or 2:1 peptide-to-metal complex ratios were applied. The computer program HypSpec was used to obtain stability constants.

[6] = Distribution coefficients, shake-flask n-octanol/buffered aqueous solution; assay type: physicochemical; conditions: pH 7.4, n-octanol/buffer, in 100 mM KCl, read-out: logD7.4
Experimental: It is worth noting that these amino acid hybrids have excellent water solubility due to their zwitterionic form, unlike most 8-hydroxyquinolines.
Distribution coefficients of the ligands as well as of the complexes were determined at pH = 7.4 using the traditional shake-flask method in n-octanol/buffered aqueous solution (20 mM phosphate) at different chloride ion concentrations (4, 24 and 100 mM) using UV-vis spectrophotometry for the analysis. The measurement and data evaluation were performed as described in our former work.

[7] = tested on: Colo-205 human colon adenocarcinoma cell line (doxorubicin-sensitive); test: MTT cytotoxicity assay in Colo-205; assay type: cell-based; conditions: Homo sapiens, COLO 205, 72 h incubation
Experimental: as §1, §2, §3

[8] = tested on: Colo-320 human colon adenocarcinoma cell line (multidrug-resistant); test: MTT cytotoxicity assay in Colo-320; assay type: cell-based; conditions: Homo sapiens, COLO 320, 72 h incubation
Experimental: as §1, §2, §3

[9] = tested on: Colo-205 human colon adenocarcinoma cell line (doxorubicin-sensitive); parameters: method as in PMID 32500882; conditions: cited from earlier work
[10] = tested on: Colo-320 human colon adenocarcinoma cell line (multidrug-resistant); parameters: method as in PMID 32500882; conditions: cited from earlier work
[11] = parameters: method as in PMID 32500882; conditions: cited from earlier work; remark: listed apart in the source

T2 sequence (P02768 25-609): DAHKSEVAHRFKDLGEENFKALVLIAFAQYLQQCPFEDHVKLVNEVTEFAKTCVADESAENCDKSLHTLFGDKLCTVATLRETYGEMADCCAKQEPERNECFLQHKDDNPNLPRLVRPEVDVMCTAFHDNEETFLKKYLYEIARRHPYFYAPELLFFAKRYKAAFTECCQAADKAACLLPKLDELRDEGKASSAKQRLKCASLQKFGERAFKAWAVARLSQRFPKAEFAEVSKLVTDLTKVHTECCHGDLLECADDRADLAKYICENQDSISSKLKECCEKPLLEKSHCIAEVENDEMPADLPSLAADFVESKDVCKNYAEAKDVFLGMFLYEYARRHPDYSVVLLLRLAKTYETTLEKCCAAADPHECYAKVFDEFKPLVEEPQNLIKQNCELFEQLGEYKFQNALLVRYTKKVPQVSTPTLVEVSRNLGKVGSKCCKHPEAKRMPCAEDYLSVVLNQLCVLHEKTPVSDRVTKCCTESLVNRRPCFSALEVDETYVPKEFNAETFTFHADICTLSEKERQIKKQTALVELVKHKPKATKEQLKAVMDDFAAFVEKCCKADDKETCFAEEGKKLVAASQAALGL
T1 sequence (P02768 25-609): as above

In the case of `c1ccc2c(c1)Nc1c(ccc3ccccc13)S2` [M627, 12H-Benzo[α]phenothiazine, reference compound], the “cell death, gated events” value (Colo-205 cells; 10 μM) is reported as 15.2%, the “early apoptosis, gated events” value (Colo-205 cells; 10 μM) is reported as 5.27% and the “late apoptosis and necrosis, gated events” value (Colo-205 cells; 10 μM) is reported as 16.8%. For the same compound, the “cell death (Q1), gated events” value (Colo-205 cells; 20 μM) was 20.9%, the “early apoptosis (Q3), gated events” value (Colo-205 cells; 20 μM) was 21.7% and the “late apoptosis and necrosis (Q2), gated events” value (Colo-205 cells; 20 μM) was 36.2%.

In the case of `Cc1c(C)c(C)[c-](C)c1C.O=C(O)[C@@H]1CCC[NH+]1Cc1cc(Cl)c2cccnc2c1[O-].[Cl-].[Cl-].[Rh+3]` [RhCp*–HQCl-L-Pro, [RhCp*(HQCl-L-Pro)Cl]Cl], the “stability constant logK of the RhCp* complex” value [1] is given as 13.41, the “FHA logKFHA′” value (Ac-Phe–His–Ala-NH2 (FHA)) is given as 4.7 and the “reaction time with the tripeptides” value (Ac-Phe–His–Ala-NH2 (FHA)) is given as “few seconds”. For the same compound, the “logK′ (AHA)” value (Ac-Ala–His–Ala-NH2 (AHA)) was 4.2, the “Trp-214 Quenching logKQ′, Site I” value [2] was 5.5 and the “DG Displacement logKDG′, Site II” value [3] was 5.6.

For `Cc1ccc(C(C)C)cc1.O=C(O)[C@@H]1CCC[NH+]1Cc1cc(Cl)c2cccnc2c1[O-].[Cl-].[Cl-].[Ru+2]` [RuCym–HQCl-L-Pro, [RuCym(HQCl-L-Pro)Cl]Cl], the “FHA logKFHA′” value (Ac-Phe–His–Ala-NH2 (FHA)) is listed as 5.1, the “reaction time with the tripeptides” value (Ac-Phe–His–Ala-NH2 (FHA)) is listed as 3 h and the “logK′ (AHA)” value (Ac-Ala–His–Ala-NH2 (AHA)) is listed as 4.4. The “Trp-214 Quenching logKQ′, Site I” value [2] was 5.7 and the “DG Displacement logKDG′, Site II” value [3] was 6.1.

With `O=C(O)[C@H]1CCCN1Cc1cc(Cl)c2cccnc2c1O` [HQCl-D-Pro, (R)-5-chloro-7-((proline-1-yl)methyl)8-hydroxyquinoline] the IC50 [4] was 5.33 ± 0.44 µM, the pKa ([5]; 1H NMR, read-out: pKa (NhPro/ProH+)) was > 11 and the pKa ([5]; 1H NMR, read-out: pKa (NqH+)) was 2.32 ± 0.03. For the same compound, the pKa ([5]; 1H NMR, read-out: pKa (OH)) was 7.75 ± 0.02, the pKa ([5]; UV-vis, read-out: pKa (NhPro/ProH+)) was > 11 and the pKa ([5]; UV-vis, read-out: pKa (NqH+)) was 2.13 ± 0.03. For the same compound, the pKa ([5]; UV-vis, read-out: pKa (OH)) was 7.77 ± 0.04, the pKa ([5]; pH-potentiometry, read-out: pKa (NhPro/ProH+)) was > 11 and the pKa ([5]; pH-potentiometry, read-out: pKa (NqH+)) was < 2. For the same compound, the pKa ([5]; pH-potentiometry, read-out: pKa (OH)) was 7.71 ± 0.06, the “fraction of the negatively charged species (O−, COO−, NhPro/ProH+)” value ([5]; at pH 7.4) was 30% and the logD [6] was -0.02 ± 0.01.

Work on `COc1cccc2c1C(=O)c1c(O)c3c(c(O)c1C2=O)C[C@@](O)(C(=O)CO)C[C@@H]3O[C@H]1C[C@H](N)[C@H](O)[C@H](C)O1` [doxorubicin, reference compound] yielded an IC50 [7] of 0.05 ± 0.01 µM, an IC50 [8] of 0.19 ± 0.02 µM and an IC50 [4] of 0.82 ± 0.16 µM.

In the case of `N.N.[Cl][Pt][Cl]` [cisplatin, reference compound], the “cell death, gated events” value (Colo-205 cells; 15 μM) is reported as 3.18%, the “early apoptosis, gated events” value (Colo-205 cells; 15 μM) is reported as 1.06% and the “late apoptosis and necrosis, gated events” value (Colo-205 cells; 15 μM) is reported as 4.70%.

In the case of `O=C(O)[C@@H]1CCCN1Cc1cc(Cl)c2cccnc2c1O` [HQCl-L-Pro, (S)-5-chloro-7-((proline-1-yl)methyl)8-hydroxyquinoline], the IC50 [4] is given as 4.57 ± 0.21 µM, the IC50 [9] is given as 23.4 µM and the IC50 [10] is given as 8.5 µM. For the same compound, the “pKa (NH+Pro)” value [11] was > 11.5, the “pKa (NqH+)” value [11] was 2.36 and the “pKa (OH)” value [11] was 7.76.
